How the values were obtained:
Format in all cases: cell-based
[1] = tested on: Staph. aureus Russell; test: standard antibacterial test; design: unit not given here; conditions: compound alone
Description: IN A STANDARD ANTIBACTERIAL TEST, THE FOLLOWING DATA WERE OBTAINED

[2] = tested on: Staph. aureus Russell; test: standard MIC synergy test
Description: (§1) […]

[3] = tested on: Escherichia coli JT39; test: standard MIC synergy test
Description: as §1

[4] = tested on: Klebsiella Aerogenes E70; test: standard MIC synergy test; conditions: Amoxycillin alone, no inhibitor (comparison); unit assumed
Description: as §1

[5] = Concentration of inhibitor 5.0 μg/ml, MIC of amoxycillin in presence of inhibitor, 'Inhibited' = inhibitor alone inhibits growth
[6] = Concentration of inhibitor 1.0 μg/ml, MIC of amoxycillin in presence of inhibitor, 'Inhibited' = inhibitor alone inhibits growth
[7] = Concentration of inhibitor 5.0 μg/ml, MIC of amoxycillin in presence of inhibitor
[8] = Amoxycillin alone, no inhibitor (comparison), unit assumed

Row | MIC synergy test, Staph. aureus Russell [2, 5] | SMILES | standard antibacterial test, Staph. Aureus Russell [1] | further results
1 | Inhibited | CC(C)C(N)=NC/C=C1\O[C@@H]2CC(=O)N2[C@H]1C(=O)O [Example 16, 9-N-(1 t-amino-2'-methylpropylidene) amino-9-deoxyclavulanic acid.] | 4.0 | 
2 |  | CC(=NC/C=C1\O[C@@H]2CC(=O)N2[C@H]1C(=O)O)NCCCCCC(=O)O [Example 9, Lithium 9-N-[1-(N-5'Carboxylatopentyl)aminoethylidene]amino-9-deoxyclavlanic acid] | 62.5 | 
3 | Inhibited | O=C(O)[C@H]1/C(=C/CN=CN2CCCCC2)O[C@@H]2CC(=O)N21 [Example 26, 9-N-(N,N-pentamethyleneaminomethylene) amino-9-deoxyolavulanic acid.] | ≤0.5 | MIC synergy test, Staph. aureus Russell [2, 6]: Inhibited
4 |  | CC(=NC/C=C1\O[C@@H]2CC(=O)N2[C@H]1C(=O)O)NCC(=O)O [Example 10, Potassium 9-N-[1-(N-Carboxylatomethyl)aminoethylidene]amino-9-deoxyclavulanic acid] | 62.5 | 
5 | Inhibited | NC(=NC/C=C1\O[C@@H]2CC(=O)N2[C@H]1C(=O)O)c1ccccc1 [Example 7, 9 N-(1-aminobenzylidene)amino-9-deoxyclavulanic acid] | 8.0 | 
6 | Inhibited | CCCCC(N)=NC/C=C1\O[C@@H]2CC(=O)N2[C@H]1C(=O)O [Example 18, 9-N-(l-aminopentylidene) amino-9-deoxyclavulanic acid.] | 2.0 | 
7 |  | NC(Cc1cccs1)=NC/C=C1\O[C@@H]2CC(=O)N2[C@H]1C(=O)O [Example 29, 9-N-(1-amino-2-[2'-thienyl]ethylidene) amino-9-deoxyclavulanic acid.] | 2.0 | 
8 | Inhibited | CC(N)=NC/C=C1\O[C@@H]2CC(=O)N2[C@H]1C(=O)O [Example 2, 9-N-(1'-aminoethylidene)amino-9-deoxyclavulanic acid] | 16.0 | 
9 |  | COCCC(N)=NC/C=C1\O[C@@H]2CC(=O)N2[C@H]1C(=O)O [Example 13, 9-N-(1'-amino-3'-methoxypropylidene)amino-9-deoxyclavulanic acid] | 16.0 | 
10 | Inhibited | CCN(C=NC/C=C1\O[C@@H]2CC(=O)N2[C@H]1C(=O)O)CC [Example 21, 9-N-(diethylaminomethylene) amino-9-deoxyclavulanic acid.] | 4.0 | 
11 | Inhibited | CNC(C)=NC/C=C1\O[C@@H]2CC(=O)N2[C@H]1C(=O)O [Example 24, 9-N-[l-(N-methyl)aminoethylidene] amino-9-deoxyclavulanic acid.] | 8.0 | 
12 | Inhibited | NC(=NC/C=C1\O[C@@H]2CC(=O)N2[C@H]1C(=O)O)C1CCC1 [Example 20, 9-N-(amino-cyclobutylmethylene) amino-9-deoxyclavulanic acid.] | 4.0 | MIC synergy test, Escherichia coli JT39 [3, 7]: Inhibited
13 | Inhibited | NC=NC/C=C1\O[C@@H]2CC(=O)N2[C@H]1C(=O)O [Example 5, 9-N-(aminomethylene)amino-9-deoxyclavulanic acid] | 4.0 | 
14 | Inhibited | O=C(O)[C@H]1/C(=C/CN=CNCc2ccccc2)O[C@@H]2CC(=O)N21 [Example 6, 9-N-(N-benzylaminomethylene)amino-9-deoxyclavulanic acid] | 2.0 | MIC synergy test, Staph. aureus Russell [2, 6]: Inhibited
15 | Inhibited | O=C(O)[C@H]1/C(=C/CN=CN2CCCCCC2)O[C@@H]2CC(=O)N21 [Example 27, 9-N-(N,N-hexamethyleneaminomethylene) aimno-9-deoxyclavulanic acid.] | 1.0 | MIC synergy test, Staph. aureus Russell [2, 6]: Inhibited
16 | Inhibited | CC(=NC/C=C1\O[C@@H]2CC(=O)N2[C@H]1C(=O)O)NCCCCCC(=O)OCc1ccccc1 [Example 8, 9-N-[1(N-5-benzyloxycarbonylpentyl)aminoethylidene]amino-9-deoxyclavulanic acid] | 8.0 | 
17 | Inhibited | CC(=NC/C=C1\O[C@@H]2CC(=O)N2[C@H]1C(=O)O)NCc1ccccc1 [Example 4, 9-N-[1-(N-benzyl)aminoethylidene]amino-9-deoxyclavulanic acid] | 2.0 | 
18 | Inhibited | CCC(N)=NC/C=C1\O[C@@H]2CC(=O)N2[C@H]1C(=O)O [Example 14, 9-N-(1'aminopropylidene)amino-9-deoxyclavulanic acid] | 4.0 | 
19 | Inhibited | CCCC(N)=NC/C=C1\O[C@@H]2CC(=O)N2[C@H]1C(=O)O [Example 12, 9-N-(1-aminobutylidene)amino-9-deoxyclavulanic acid] | 4.0 | 
20 | Inhibited | CNC=NC/C=C1\O[C@@H]2CC(=O)N2[C@H]1C(=O)O [Example 11, 9-N-(N-methylaminomethylene)amino-9-deoxyclavulanic acid] | 4.0 | 
21 | Inhibited | CCNC(C)=NC/C=C1\O[C@@H]2CC(=O)N2[C@H]1C(=O)O [Example 25] | 4.0 | 
22 | Inhibited | CC(=NC/C=C1\O[C@@H]2CC(=O)N2[C@H]1C(=O)O)N(C)C [Example 22, 9-N-[1-(N,N-dimethyl)aminoethylidene] amino-9-deoxyclavulanic acid.] | ≤0.5 | MIC synergy test, Staph. aureus Russell [2, 6]: Inhibited; MIC synergy test, Escherichia coli JT39 [3, 7]: Inhibited
23 |  | CSCC(N)=NC/C=C1\O[C@@H]2CC(=O)N2[C@H]1C(=O)O [Example 28, 9-N-(1'-amino-2'-methylthioethylidene) amino-9-deoxyclavulanic acid.] | 2.0 | 
24 | Inhibited | CN(C)C=NC/C=C1\O[C@@H]2CC(=O)N2[C@H]1C(=O)O [Example 1, 9-N-(Dimethylaminomethylene) amino-9-deoxyclavulanic acid] | 4.0 | 
25 |  | CC1(C)S[C@@H]2[C@H](NC(=O)[C@H](N)c3ccc(O)cc3)C(=O)N2[C@H]1C(=O)O [Amoxy-cillin, amoxycillin, reference compound] |  | MIC synergy test, Klebsiella Aerogenes E70 [4]: 1000 µg/mL; MIC synergy test, Staph. aureus Russell [2, 8]: 500 µg/mL; MIC synergy test, Escherichia coli JT39 [3, 8]: 2000 µg/mL
26 | Inhibited | O=C(O)[C@H]1/C(=C/CN=C2CCCN2)O[C@@H]2CC(=O)N21 [Example 30, 9-N-(2-pyrrolidylidene) amino-9-deoxyclavulanic acid.] | 1.0 | MIC synergy test, Staph. aureus Russell [2, 6]: Inhibited
27 | Inhibited | NC(=NC/C=C1\O[C@@H]2CC(=O)N2[C@H]1C(=O)O)C1CC1 [Example 19, 9-N-(amino-cyclopropylmethylene) amino-9-deoxyclavulanic acid.] | 4.0 | MIC synergy test, Escherichia coli JT39 [3, 7]: Inhibited
28 | Inhibited | O=C(O)[C@H]1/C(=C/CN=C2CCCCN2)O[C@@H]2CC(=O)N21 [Example 31, 9-N-(2-piperidylidene) amino-9-deoxyclavulanic acid.] | 1.0 | MIC synergy test, Staph. aureus Russell [2, 6]: Inhibited
29 | Inhibited | CNC(=NC/C=C1\O[C@@H]2CC(=O)N2[C@H]1C(=O)O)c1ccccc1 [Example 23] | 2.0 | MIC synergy test, Staph. aureus Russell [2, 6]: Inhibited
30 | Inhibited | CC(=NC/C=C1\O[C@@H]2CC(=O)N2[C@H]1C(=O)O)NCC(C)C [Example 3, 9-N-[1'-(N-isobutyl)aminoethylidene]amino-9-deoxyclavulanic acid] | 4.0 | 
